In data set [1] the target is T1, Δ^4 -5α-reductase for aldosterone in rat liver (Rattus norvegicus, UniProt P24008).
T1 construct: The pellet was appropriately diluted with a solution of 0.25 M sucrose-1 mM EDTA to use as a 5α-reductase solution; from tissue; host or cells: rat liver, 105,000 g pellet
T1 sequence (P24008 1-259): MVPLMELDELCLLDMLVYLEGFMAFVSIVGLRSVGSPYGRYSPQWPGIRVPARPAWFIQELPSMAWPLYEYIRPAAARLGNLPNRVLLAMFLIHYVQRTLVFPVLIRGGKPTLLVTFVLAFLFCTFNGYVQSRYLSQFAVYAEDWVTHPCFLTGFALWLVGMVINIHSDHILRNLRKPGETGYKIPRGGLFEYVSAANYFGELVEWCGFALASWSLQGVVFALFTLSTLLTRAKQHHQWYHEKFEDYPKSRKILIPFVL
The experiment in a line: inhibitory action on Δ^4-5α-reductase for aldosterone. Format: biochemical. How it is done:
In vitro experimental results regarding effects of glycyrrhetinic acid (II) and its modified compounds (III), (IV), and (I) on Δ^4 -5α and 5β-reductase for aldosterone in rat liver will be shown below.
Assay for activity of Δ^4 -5α and 5β-reductase
(1) Preparation of enzyme solutions
Rat livers were perfused with saline and excised to prepare a 25% or 50% homogenate with a solution of 0.25 M sucrose and 1 mM EDTA. The homogenate was spun at 10,000 g for 20 minutes to separate supernatant, which was centrifuged again at 105,000 g to obtain Δ^4 -5β-reductase as the supernatant. The pellet was appropriately diluted with a solution of 0.25 M sucrose-1 mM EDTA to use as a 5α-reductase solution.
(2) Conditions for incubation and assay
1 Aldosterone . . . 0.173 μM/0.05 ml ethanol solution
2 Glycyrrhetinic acid or its modified compounds . . . 0.173 μM/0.05 ml ethanol solution Control . . . 0.05 ml ethanol solution
5α-reductase solution 0.1 ml
5β-reductase solution 0.1 ml or 0.2 ml
5 Phosphate buffer (0.1 M, pH 7.2) 1 ml
The components 1 , 2 , 3 , 4 , 5 , and 6 mentioned above were mixed to bring the total volume up to 2.5 ml. The mixture was incubated at 37° C. for 20 minutes. Before the incubation, however, 1 ml aliquot was removed from 2.5 ml of the mixture mentioned above and extracted with 5 ml of methylene dichloride. After the incubation, the remaining 1.5 ml was extracted with 5 ml of methylene dichloride. The optical density of the two methylene dichloride solutions prepared before and after the incubation was measured by a spectrophotometer (Hitachi) at 240 mμ. Inhibition % of Δ^4 -5α and 5β-reductase activity was calculated from the difference in the optical density.

The subject of data set [2] is aspirin-induced ulcer. The experiment in a line: rat experiment on aspirin-induced ulcer, pylorus ligated (experiment a). The data set is classed as in vivo, male Wister rats. How it is done:
(b) Rat experiment on aspirin-induced ulcer
(a) Experimental procedures:
Male Wister rats weighing about 220 g were made to fast for 24 hours. Water was given freely. The rats were laparotomized under anesthesia with ether. The stomach was drawn out and ligated at the pylorus. Immediately thereafter, 1% CMC suspension of aspirin was administered orally in a dose of 100 mg/kg/5 ml. Aqueous suspensions of compounds to be tested were prepared in the same manner as in the experiment (a) and administered intraduodenally at the same time. The wound was closed and the rats were set free. After 7 hours, the stomach was excised and ulcer was measured in the same manner as in the experiment (a).

The test system of data set [3] is aspirin-induced ulcer. Description: rat experiment on aspirin-induced ulcer, oral (experiment b). Format: in vivo, male Wister rats. As to the method:
(b) Experimental procedures:
Male Wister rats weighing 120-140 g were made to fast for 24 hours, and compounds to be tested were administered orally. After 5 hours, the rats were killed by a blow. The stomach was excised and observed for the presence of ulcer.
The size of ulcer was measured by ulcer index (ulcer length×width mm^2).

For data set [4], the system named is rat paw edema induced with carrageenin. Description: test on rat paw edema induced with carrageenin (antiinflammatory). The data set is classed as in vivo, male Wister rats. How it is done: (a) Test on rat paw induced with carrageenin
To the plantar side of the hind paw of male Wister rats was administered subcutaneously 0.05 ml/rat of 10% saline solution of carrageenin. Edema after three hours was measured by the volume method and the rate of inhibition was assayed. Compounds were administered orally 30 minutes before administration of carrageenin. [formula]

Data set [5] concerns writhing induced by acetic acid. The experiment in a line: effect on writhing induced by acetic acid (analgesic action). The note with it: for number of writhing: counted for 10 minutes, control 24.9 ± 1.6, ** p < 0.01. Format: in vivo, male ddY mice. As to the method: (b) Effect on writhing induced by acetic acid (analgesic action)
The present compound olean-12-ene-3β, 30-diol (I) was administered orally to male ddY mice weighing 25-27 g. After 30 minutes, saline containing 0.7% acetic acid was administered intraperitoneally. The number of writhings of the mice was counted for 10 minutes from, 10 min. of the administration. Aspirin was used as the reference.
A general note: Writhing tests count abdominal constrictions after an irritant is injected.

The test system of data set [6] is PCA reaction (type I allergy). The experiment in a line: PCA test (type I allergy). Format: in vivo, male Wister rats. As to the method:
(a) PCA--Test (type I allergy)
Male Wister rats weighing […] were shaved at the abdomen. After 24 hours, 0.05 ml of serum diluted with saline (Blood samples were diluted to 1/32 and 1/64; The blood samples were collected from rats 3 weeks after administration of pertussis vaccine and egg albumin.) was injected intradermally at the abdomen. After 48 hours, compounds to be tested were administered intraperitoneally. Two hours thereafter, 0.5 ml./100 g of a solution of antigen and pigment (a solution of 0.4% egg albumin and 0.5% Pontamine sky blue) was administered. After 45 minutes, the rats were decapitated and bled, and the diameter of the pigment-leaking site under the skin was measured to obtain the area.

The nature of the next data set: acute toxicity test. The data set is classed as in vivo, male mice (ddY). The following applies: mouse, in vivo. How it is done:
(§1) To male mice (ddY) weighing 24 g-26 g, 10 mice in one group, compounds to be tested (suspended in Tween 80) in various doses of the ratio (1, 2) were administered (orally and intraperitoneally), and LD50 was determined by the Litchfield-Wilcoxon method.

For another data set, the system named is mice. Description: acute toxicity test. Format: in vivo, male mice (ddY). The following applies: oral and intraperitoneal. As to the method: as §1

“Also recorded” adds a separate entry of the source. A value given as a limit tells only on which side of the number the result lay.

Regarding `CC1(C)[C@@H](O)CC[C@]2(C)[C@H]3CC=C4[C@@H]5C[C@@](C)(CO)CC[C@]5(C)CC[C@@]4(C)[C@]3(C)CC[C@@H]12` [I, olean-12-ene-3β, 30-diol], the inhibition (usually the drop in the measured response relative to a control, in per cent) at 0.173 µM in data set [1] (pH 7.2, read-out: 5α-reductase (inhibition %)) was -7.1%. For the same molecule, the “effect upon Δ^4 -5α-5β-reductase (in words), 5α” value in data set [1] (summary in words, liver reductase) is listed as “no inhibitory activity”. In addition, the ulcer index in the data set with aspirin-induced ulcer [2] (320 mg/kg (head p.o.; text intraduodenally), aspirin 100 mg/kg, after 7 hours, control 14.1 ± 3.14) was 6.2 ± 2.37. Also, the “inhibitory effect on aspirin-induced ulcer, experiment (a) (in words)” value in the data set with aspirin-induced ulcer [2] (rat, in vivo) is reported as “showed an inhibitory effect”. In the data set with aspirin-induced ulcer [3] (200 mg/kg p.o., after 5 hours, control 0), the “ulcer index (ulcer length×width)” value is 0 mm^2. Also, in the data set on aspirin-induced ulcer [3] (rat, in vivo), the “effect on ulcer, experiment (b) (in words)” value is “did not produce ulcer and inhibited the development of ulcer induced by aspirin”. Besides, in data set [4] (200 mg/kg p.o., after three hours, control 71 ± 6), the edema % is reported as 52 ± 5%. Also, the inhibition at 200 mg/kg in data set [4] (Rattus norvegicus, po, 3 h, edema, 200 mg/kg p.o., after three hours) worked out at 26.8%. In addition, in data set [4] (rat, in vivo), the “inhibitory activity against inflammation (in words)” value is recorded as “has an inhibitory activity against inflammation, but the activity is inferior to that of aspirin; also recorded: will not affect the inhibitory activity of aspirin”. Moreover, the number of writhing in data set [5] (100 mg/kg p.o.) is listed as 15.5 ± 2.8; in data set [5] (200 mg/kg p.o.) it was 11.1 ± 1.6; in data set [5] (400 mg/kg p.o.), 8.0 ± 1.7. For the same molecule, the “effect on writhing (in words)” value in data set [5] (increasing doses) is given as “significantly decrease the number of writhing; also recorded: a little stronger than that of (II), but not so perfect as aspirin”. In addition, the area in data set [6] (serum 1/32, 100 mg/kg intraperitoneally, control 35.2 ± 5.3) came to 22.3 ± 9.1 mm^2; in data set [6] (serum 1/64, 100 mg/kg intraperitoneally, control 16.4 ± 2.8), 6.8 ± 4.6 mm^2; in data set [6] (serum 1/64, 200 mg/kg intraperitoneally, control 16.4 ± 2.8) it was 6.3 ± 4.8 mm^2. The “PCA activity compared with (II) (in words)” value in data set [6] (serum diluted to 1/64) is on record as “a little stronger than that of (II)”. Moreover, the LD50 (as a rule, the dose expected to kill half of the subjects tested) in “acute toxicity test” (ip, intraperitoneal administration) is more than 4000 mg/kg; in “acute toxicity test” (oral administration), more than 5000 mg/kg. For the same molecule, in the data set on mice, the “acute toxicity (in words)” value is listed as “very low toxicity”.

Source of the values: patent US4374284A, “Antiulcer, antiinflammatory, and antiallergic agent comprising as the main ingredient olean-12-ene-3β, 30-diol which is devoid of side effects of glycyrrhetinic acid and a new process for preparation of olean-12-ene-3β, 30-diol” (Minophagen Pharmaceutical Company, priority 1980, dated 1983).
